In brackets after ≈: the same amount, converted by molar mass. Bridge positions count the residues as written; N and C are the ends. Square brackets hold non-standard residues; d marks the D form. Peptide text beside a SMILES is read from it. * marks the point of attachment. Bip = N[C@@H](Cc1ccc(-c2ccccc2)cc1)C(=O)O; dPhe(4-I) = N[C@H](Cc1ccc(I)cc1)C(=O)O; NMe2Val = CC(C)[C@@H](C(=O)*)N(C)C; NMeI = CC[C@H](C)[C@H](NC)C(=O)O; NMeT = CN[C@H](C(=O)O)[C@@H](C)O; 4Pal = N[C@@H](Cc1ccncc1)C(=O)O; Tic = O=C(O)[C@@H]1Cc2ccccc2CN1; NMeL = CN[C@@H](CC(C)C)C(=O)O; S5 = C=CCCC[C@](C)(N)C(=O)O; Hiv = CC(C)[C@H](O)C(=O)O; NMeS = CN[C@@H](CO)C(=O)O; Octanoyl = CCCCCCCC(=O)*; dNMeA = CN[C@H](C)C(=O)O; Sar = CNCC(=O)O
How the values were obtained:
[1] = Inhibition of GABA-A receptor (unknown origin); design: species or system Homo sapiens
Melanocortin receptor 3 = Melanocortin receptor 3 (Homo sapiens, UniProt P41968); test: Inhibition of MC3R (unknown origin)
[2] = biological target: G-protein coupled receptor 52 (Homo sapiens, UniProt Q9Y2T5); test: Agonist activity at human GPR52 expressed in CHO cells assessed as increase in intracellular cAMP level incubated for 30 mins by Alphascreen assay; type: functional, cell-based
Replicase polyprotein 1a = Replicase polyprotein 1a (Severe acute respiratory syndrome-related coronavirus, UniProt P0C6U8); test: Inhibition of SARS-CoV MPro using Dabcyl-KTSAVLQSGFRKM-E(Edans)-NH2 as substrate preincubated for 15 mins followed by substrate addition measured after 30 mins by FRET assay
Candida albicans = test: Antifungal activity against Candida albicans ATCC 10231 assessed as fungal growth inhibition; type: functional, organism-based
Cryptococcus neoformans = test: Antifungal activity against Cryptococcus neoformans ATCC 32045 assessed as inhibition of fungal growth incubated for 72 hrs by broth microdilution method; type: functional
Enterococcus faecalis = test: Antibacterial activity against Enterococcus faecalis ATCC 29212 assessed as bacterial growth inhibition by agar diffusion assay; type: functional
Staphylococcus aureus [3] = test: Antibacterial activity against Staphylococcus aureus assessed as reduction in microbial growth by CLSI based broth microdilution method; type: functional
Pseudomonas aeruginosa [4] = test: Antimicrobial activity against Pseudomonas aeruginosa ATCC 27853 assessed as reduction in microbial growth after 24 hrs by CLSI based Mueller-Hinton broth assay; type: functional
Escherichia coli [5] = test: Antimicrobial activity against Escherichia coli ATCC 25922 assessed as reduction in microbial growth after 24 hrs by CLSI based Mueller-Hinton broth assay; type: functional
Klebsiella pneumoniae = test: Antimicrobial activity against Klebsiella pneumoniae ATCC 13882 assessed as reduction in microbial growth after 24 hrs by CLSI based Mueller-Hinton broth assay; type: functional
Acinetobacter baumannii [6] = test: Antibacterial activity against Acinetobacter baumannii ATCC 17978 assessed as reduction in microbial growth after 24 hrs by CLSI based Mueller-Hinton broth assay; type: functional
Staphylococcus aureus [7] = test: Antibacterial activity against Staphylococcus aureus ATCC 25923 assessed as reduction in bacterial growth incubated for 18 to 20 hrs by broth microdilution assay; type: functional; conditions: time 18-20 hrs
Pseudomonas aeruginosa [8] = test: Antibacterial activity against Pseudomonas aeruginosa PAO1 assessed as bacterial growth inhibition by CLSI protocol based microdilution method; type: functional
Escherichia coli [9] = test: Antibacterial activity against Escherichia coli K12 assessed as reduction in bacterial growth incubated for 16 hrs by Broth micro-dilution assay; type: functional
Acinetobacter baumannii [10] = test: Antibacterial activity against Acinetobacter baumannii ATCC 19606 assessed as reduction in microbial growth after 16 hrs by broth microdilution method; type: functional
Mu-type opioid receptor = Mu-type opioid receptor (Homo sapiens, UniProt P35372); test: Agonist activity at MOR (unknown origin); type: functional
[11] = biological target: Amyloid-beta precursor protein (Homo sapiens) (UniProt P05067); test: Inhibition of amyloid beta42 (unknown origin) aggregation at 10 uM measured after 5 mins by ThT fluorescence based assay relative to control
HeLa = test: Antiproliferative activity against human HeLa cells assessed as reduction in cell viability by MTT assay; type: functional, cell-based
[12] = Half life in human plasma; type: ADME, cell-free
[13] = biological target: Tyrosine-protein kinase FRK (Homo sapiens, UniProt P42685); test: Inhibition of FRK (unknown origin)
Escherichia coli [14] = test: Antibacterial activity against Escherichia coli ATCC 25922 assessed as bacterial growth inhibition; type: functional
[15] = Binding affinity to SETD8 (unknown origin) assessed as dissociation constant; design: species or system Homo sapiens

Chain of Melanocortin receptor 3 (P41968 whole entry): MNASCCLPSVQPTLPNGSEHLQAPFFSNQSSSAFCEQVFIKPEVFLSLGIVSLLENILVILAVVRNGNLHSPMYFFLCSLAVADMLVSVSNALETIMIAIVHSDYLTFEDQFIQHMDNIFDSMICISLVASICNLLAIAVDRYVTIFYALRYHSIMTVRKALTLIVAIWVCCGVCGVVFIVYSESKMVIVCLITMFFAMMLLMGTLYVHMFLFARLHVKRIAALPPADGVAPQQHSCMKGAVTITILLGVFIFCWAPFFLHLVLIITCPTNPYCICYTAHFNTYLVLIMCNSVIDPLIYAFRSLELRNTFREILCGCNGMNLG
Chain of Mu-type opioid receptor (P35372 whole entry): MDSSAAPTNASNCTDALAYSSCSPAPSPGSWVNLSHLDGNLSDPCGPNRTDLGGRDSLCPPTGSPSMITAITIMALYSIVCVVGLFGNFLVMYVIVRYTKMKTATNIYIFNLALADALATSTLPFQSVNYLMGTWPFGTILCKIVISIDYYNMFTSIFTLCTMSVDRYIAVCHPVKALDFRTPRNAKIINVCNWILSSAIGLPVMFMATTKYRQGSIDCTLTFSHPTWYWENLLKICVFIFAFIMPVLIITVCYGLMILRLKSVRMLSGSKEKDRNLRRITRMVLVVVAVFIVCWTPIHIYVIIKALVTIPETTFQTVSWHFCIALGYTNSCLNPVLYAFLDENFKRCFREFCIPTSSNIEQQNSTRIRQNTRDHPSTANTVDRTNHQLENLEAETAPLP
Chain of Tyrosine-protein kinase FRK (P42685 whole entry): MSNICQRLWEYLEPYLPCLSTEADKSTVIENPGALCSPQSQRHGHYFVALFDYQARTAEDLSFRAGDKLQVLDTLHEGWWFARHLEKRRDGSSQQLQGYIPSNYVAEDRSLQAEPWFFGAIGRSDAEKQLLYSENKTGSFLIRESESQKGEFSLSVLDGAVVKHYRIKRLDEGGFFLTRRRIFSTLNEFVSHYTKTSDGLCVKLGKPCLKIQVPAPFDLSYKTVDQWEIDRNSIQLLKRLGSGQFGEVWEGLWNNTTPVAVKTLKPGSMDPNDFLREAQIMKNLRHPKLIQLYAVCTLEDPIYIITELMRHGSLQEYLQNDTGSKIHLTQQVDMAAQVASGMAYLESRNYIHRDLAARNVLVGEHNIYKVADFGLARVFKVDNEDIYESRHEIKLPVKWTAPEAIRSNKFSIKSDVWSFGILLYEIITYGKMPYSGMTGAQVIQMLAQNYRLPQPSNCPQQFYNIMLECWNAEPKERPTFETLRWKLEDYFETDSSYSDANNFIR
Chain of G-protein coupled receptor 52 (Q9Y2T5 whole entry): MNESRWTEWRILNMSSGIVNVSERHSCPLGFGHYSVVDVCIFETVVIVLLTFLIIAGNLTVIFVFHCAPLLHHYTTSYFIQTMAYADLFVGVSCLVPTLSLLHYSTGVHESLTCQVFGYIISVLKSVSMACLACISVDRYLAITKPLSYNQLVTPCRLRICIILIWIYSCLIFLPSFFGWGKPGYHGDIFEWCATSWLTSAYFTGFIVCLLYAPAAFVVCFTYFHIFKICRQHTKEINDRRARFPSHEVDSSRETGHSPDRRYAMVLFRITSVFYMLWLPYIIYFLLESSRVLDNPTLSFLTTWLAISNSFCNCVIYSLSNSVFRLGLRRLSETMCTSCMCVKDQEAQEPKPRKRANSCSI
Chain of Amyloid-beta precursor protein (Homo sapiens) (P05067 whole entry): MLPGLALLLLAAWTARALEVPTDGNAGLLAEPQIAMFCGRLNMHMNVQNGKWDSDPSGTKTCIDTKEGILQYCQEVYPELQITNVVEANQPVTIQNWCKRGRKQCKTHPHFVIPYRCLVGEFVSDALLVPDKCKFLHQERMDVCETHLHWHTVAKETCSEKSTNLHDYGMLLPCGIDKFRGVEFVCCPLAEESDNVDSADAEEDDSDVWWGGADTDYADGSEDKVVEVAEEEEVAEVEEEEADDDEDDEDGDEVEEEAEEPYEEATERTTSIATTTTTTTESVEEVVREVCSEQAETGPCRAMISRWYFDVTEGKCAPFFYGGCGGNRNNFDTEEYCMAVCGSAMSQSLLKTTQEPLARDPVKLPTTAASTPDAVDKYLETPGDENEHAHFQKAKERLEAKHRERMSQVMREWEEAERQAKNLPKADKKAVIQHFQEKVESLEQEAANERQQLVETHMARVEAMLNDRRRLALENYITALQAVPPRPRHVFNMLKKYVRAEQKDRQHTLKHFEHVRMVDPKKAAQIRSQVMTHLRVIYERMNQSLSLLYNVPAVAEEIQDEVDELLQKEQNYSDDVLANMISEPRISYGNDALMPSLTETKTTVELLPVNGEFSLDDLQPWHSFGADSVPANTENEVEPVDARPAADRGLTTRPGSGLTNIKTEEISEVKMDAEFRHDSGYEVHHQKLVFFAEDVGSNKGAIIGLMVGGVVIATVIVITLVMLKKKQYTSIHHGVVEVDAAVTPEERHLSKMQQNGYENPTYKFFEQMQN

N[C@H]1C[C@@H](C(=O)O)C[C@@H]1F
IC50 [1]: 50 nM

CC(=O)N[C@@H](Cc1cnc[nH]1)C(=O)N[C@H](Cc1ccccc1)C(=O)N[C@@H](CCCN=C(N)N)C(=O)N[C@@H](Cc1c[nH]c2ccccc12)C(N)=O
IC50 (Melanocortin receptor 3): 560 nM

CSCC[C@H](NC(=O)[C@@H]1CCCN1C(=O)CNC(=O)[C@H](CCCCN)NC(=O)[C@H](Cc1cnc[nH]1)NC(=O)[C@H](CO)NC(=O)[C@H](CC(C)C)NC(=O)[C@H](CCCNC(=N)N)NC(=O)[C@@H]1CCCN1C(=O)[C@H](CCCNC(=N)N)NC(=O)[C@@H](N)CCC(N)=O)C(=O)N1CCC[C@H]1C(=O)N[C@@H](Cc1ccccc1)C(=O)O
EC50 [2]: 1.4 nM

N[C@H]1C=C(C(=O)O)C[C@@H]1F
IC50 [1]: 20 nM

O=C[C@H](C[C@@H]1CCNC1=O)NC(=O)[C@H](Cc1cccc(F)c1)NC(=O)c1cc2ccccc2[nH]1
IC50 (Replicase polyprotein 1a): 40 nM

O=C[C@H](C[C@@H]1CCNC1=O)NC(=O)[C@H](CC1CCCCC1)NC(=O)c1cc2ccccc2[nH]1
IC50 (Replicase polyprotein 1a): 53 nM

Cc1ccc(C[C@H](NC(=O)[C@@H](Cc2ccccc2)NC(=O)[C@@H](Cc2c[nH]c3ccccc23)NC(=O)[C@@H](N)CCCN)C(=O)N[C@H](Cc2ccccc2)C(=O)N[C@@H](Cc2cn(Cc3ccccc3)cn2)C(N)=O)cc1
IC50 (Candida albicans): 15.3 µg/mL (≈ 15.3 µM)

CCCCc1ccc(-n2cnc(C[C@H](NC(=O)[C@H](Cc3c[nH]c4ccccc34)NC(=O)[C@@H](N)Cc3cn(-c4ccc(CCCC)cc4)cn3)C(=O)NCc3ccccc3)c2)cc1
MIC (Cryptococcus neoformans): 2.46 µg/mL (≈ 2.96 µM)

CC(C)(C)c1cc(Cn2cnc(C[C@H](NC(=O)[C@@H](N)Cc3c[nH]c4ccccc34)C(=O)NCc3ccccc3)c2)cc(C(C)(C)C)c1
MIC (Enterococcus faecalis): 8 µg/mL (≈ 12.6 µM)
MIC (Staphylococcus aureus [3]): 4.4 µg/mL

CC(C)C[C@@H]1NC(=O)[C@@H](Cc2ccccc2)NC(=O)[C@@H](CCN)NC(=O)[C@@H](NC(=O)[C@H](CCN)NC(=O)[C@@H](NC(=O)[C@H](CCN)NC(=O)C[C@H](CN)C2CCCCC2)[C@@H](C)O)CCNC(=O)[C@H]([C@@H](C)O)NC(=O)[C@H](CCN)NC(=O)[C@H](CCN)NC1=O
MIC (Pseudomonas aeruginosa [4]): 0.06 µg/mL
MIC (Escherichia coli [5]): 0.06 µg/mL
MIC (Klebsiella pneumoniae): 0.125 µg/mL
MIC (Acinetobacter baumannii [6]): 0.25 µg/mL

CC[C@H](C)[C@H](NC(=O)[C@H](CC1CCCCC1)NC(=O)[C@@H](Cc1c[nH]c2ccccc12)NC(=O)[C@@H](N)CCCN)C(=O)N[C@H](Cc1ccccc1)C(=O)N[C@@H](Cc1cn(Cc2ccccc2)cn1)C(N)=O
IC50 (Candida albicans): 1 µg/mL (≈ 1.04 µM)

CC(=O)N[C@@H](Cc1c[nH]cn1)C(=O)N[C@H](Cc1ccc(I)cc1)C(=O)N[C@@H](CCCNC(=N)N)C(=O)N1Cc2ccccc2C[C@H]1C(N)=O (Ac-H[dPhe(4-I)]R[Tic]-NH2)
IC50 (Melanocortin receptor 3): 290 nM

CC(=O)N[C@@H](Cc1ccncc1)C(=O)N[C@H](Cc1ccc(I)cc1)C(=O)N[C@@H](CCCNC(=N)N)C(=O)N[C@@H](Cc1c[nH]c2ccccc12)C(N)=O (Ac-[4Pal][dPhe(4-I)]RW-NH2)
IC50 (Melanocortin receptor 3): 7 nM

C=CCCC[C@](C)(NC(=O)[C@H](CCCCN)NC(=O)[C@H](CC(C)C)NC(=O)[C@@H](N)Cc1ccccc1)C(=O)N[C@@H](CC(C)C)C(=O)N[C@@H](CCCCN)C(=O)N[C@@H](CCCCN)C(=O)N[C@@H](CC(C)C)C(=O)N[C@@H](CC(C)C)C(N)=O (H-FLK[S5]LKKLL-NH2)
MIC (Staphylococcus aureus [7]): 4 µg/mL (≈ 3.51 µM)
MIC (Pseudomonas aeruginosa [8]): 8 µg/mL (≈ 7.01 µM)
MIC (Escherichia coli [9]): 8 µg/mL (≈ 7.01 µM)
MIC (Acinetobacter baumannii [10]): 4 µg/mL

CN(CC(=O)O)C(=O)[C@H](Cc1ccccc1)NC(=O)[C@@H](CCCN=C(N)N)NC(=O)[C@@H](N)Cc1ccc(O)cc1 (H-Y[dR]F[Sar]-OH)
EC50 (Mu-type opioid receptor): 90 nM

CC[C@H](C)[C@H](NC(=O)[C@@H](NC(=O)[C@H](N)Cc1ccccc1)C(C)C)C(=O)N[C@@H](C)C(N)=O (H-[dF]VIA-NH2)
inhibition [11]: 100%

CC[C@H](C)[C@H]1C(=O)N[C@@H](C)C(=O)N(C)[C@@H](CC(C)C)C(=O)N[C@@H](Cc2ccc(OC)cc2)C(=O)N(C)[C@H](C)C(=O)O[C@H](C)[C@H](N(C)C(=O)[C@H](CC(C)C)N(C)C(=O)[C@H](COC)N(C)C(=O)[C@@H](OC(=O)[C@H](C(C)C)N(C)C)C(C)C)C(=O)N(C)[C@@H](COC)C(=O)N1C (NMe2Val-[Hiv][NMeS](Me)[NMeL][NMeT][NMeS](Me)[NMeI]A[NMeL]Y(Me)[dNMeA]; ester 4-C)
IC50 (HeLa): 1.4 nM

CCCCCCCC(=O)N[C@@H](Cc1cnc[nH]1)C(=O)N[C@H](Cc1ccccc1)C(=O)N[C@@H](CCCNC(=N)N)C(=O)N[C@@H](Cc1ccc(-c2ccccc2)cc1)C(N)=O (Octanoyl-H[dF]R[Bip]-NH2)
IC50 (Melanocortin receptor 3): 50 nM

N=C(N)NCCC[C@@H]1C(=O)N[C@@H](Cc2ccccc2)C(=O)N(CC(N)=O)CCNC(=O)NCCCCCCN1C(=O)[C@@H](N)Cc1ccc(O)cc1 (mixture of isomers)
EC50 (Mu-type opioid receptor): 46 nM

CC[C@H](C)[C@H]1C(=O)N2CCC[C@H]2C(=O)O[C@H](C(C)(C)C)C[C@@H](C)C[C@H](O)[C@H](C)C2=N[C@@H](CCC(=O)N[C@@H](Cc3ccc(OC)cc3)C(=O)N(C)[C@@H](C)C(=O)N1C)CS2 [APRATOXIN S4]
IC50 (Replicase polyprotein 1a): 170 nM

C[C@@H](O)[C@@H]1NC(=O)[C@H](CCCCN)NC(=O)[C@@H](Cc2c[nH]c3ccccc23)NC(=O)[C@H](Cc2ccccc2)NC(=O)[C@@H](NC(=O)[C@H](N)Cc2ccccc2)CSSC[C@@H](C(=O)N[C@H](CO)[C@@H](C)O)NC1=O [OCTREOTIDE]
half-life [12]: 1.5 h

Nc1nc2[nH]cc(CCc3ccc(C(=O)N[C@@H](CCC(=O)O)C(=O)O)cc3)c2c(=O)[nH]1 [PEMETREXED]
IC50 [13]: 42 nM

H-FLKLLKKLL-NH2
MIC (Staphylococcus aureus [7]): 16 µg/mL
MIC (Pseudomonas aeruginosa [8]): 8 µg/mL
MIC (Escherichia coli [9]): 32 µg/mL
MIC (Acinetobacter baumannii [10]): 16 µg/mL

H-KKKKKKAAFAAWAAFAA-NH2
MIC (Escherichia coli [14]): 1.6 µM

H-KRHRKVLR-OH
Kd [15]: 46000 nM
